This is an account of results in patent US20170204092A1, “4,5-DIHYDROISOXAZOLE DERIVATIVES AS NAMPT INHIBITORS” (AURIGENE DISCOVERY TECHNOLOGIES LIMITED, priority 2014, published 2017).

Series [1] has as its target T1, recombinant NAMPT wild type protein (Homo sapiens, UniProt P43490).
T1 construct: made in house; host or cells: E. coli
Kind of series: NAMPT fluorescence assay. It counts as biochemical. To be noted: 50 ng NAMPT, 2 μM Nam, 10 point dose response; read-out: Fluorescence assay IC50 in range. The procedure:
The enzymatic assay was standardized using in-house recombinant NAMPT wild type protein from E. coli expression & NAM (Cat #47865-U) as a substrate. The product NMN formed after enzymatic reaction was derivatized to a fluorescent derivative through sequentially reacting with acetophenone/KOH and formic acid. The derivatized fluorescent NMN derivative was detected at 382 nm excitation wavelength and a 445 nm emission wavelength. […] The fluorescence was measured (Excitation at 382 nm & Emission at 445 nm) using Victor^3 V fluorimeter. The data is calculated using the RFU values. The final concentration of DMSO was 2% in the assay. Each individual IC50 was determined using 10 point dose response curve generated by GraphPad Prism software Version 4 (San Diego, Calif., USA) using nonlinear regression curve fit for sigmoidal dose response (variable slope).

Series [2] deals with MiaPaCa-2 cells. Nature of the series: Cytotoxicity assay in MiaPaCa-2 (XTT, 72 h). Type of series: cell-based. To be noted: for IC50: XTT, read-out: Cell cytotoxicity assay IC50 in range; for inhibition at 1 µM / inhibition at 10 µM / Cell cytotoxicity assay (% Inhibition at 1 μM) / Cell cytotoxicity assay (% Inhibition at 10 μM): DMSO control = 0% inhibition; for inhibition at 1 µM: read-out: Cell cytotoxicity assay (% Inhibition at 1 μM); for inhibition at 10 µM: read-out: Cell cytotoxicity assay (% Inhibition at 10 μM). The procedure:
MiaPaCa-2 Cells (ATCC) were seeded in 96 well plates (Costar clear flat bottom) at a density of 3000 cells/well and allowed to settle overnight. Test compounds were dissolved in dimethyl sulphoxide (DMSO-Sigma Aldrich, D2650) and incubated with MiaPaCa-2 cells for 72 h. Post 72 h, 50 μl XTT (1 mg/mL; Invitrogen, X 6493) and PMS ([…]; Sigma Aldrich, P9625) reagents were added to the cells in 100 μl of cDMEM (Sigma Aldrich-D5648)+10% FBS (Hyclone-5430088-03)+1×Pen Strep (Sigma Aldrich-P0781). After 1 hour incubation with XTT and PMS absorbance was monitored with Spectramax M3 (Molecular Device). Percentage inhibition of proliferation at 10 μM and 1 μM concentrations was calculated by considering DMSO control as 0% inhibition. IC50 values were plotted using Graph pad prism software (Graph pad Inc, La Jola, Calif., USA).

Like-named read-outs stand apart in the source and are kept apart here.

T1 sequence (P43490 whole entry): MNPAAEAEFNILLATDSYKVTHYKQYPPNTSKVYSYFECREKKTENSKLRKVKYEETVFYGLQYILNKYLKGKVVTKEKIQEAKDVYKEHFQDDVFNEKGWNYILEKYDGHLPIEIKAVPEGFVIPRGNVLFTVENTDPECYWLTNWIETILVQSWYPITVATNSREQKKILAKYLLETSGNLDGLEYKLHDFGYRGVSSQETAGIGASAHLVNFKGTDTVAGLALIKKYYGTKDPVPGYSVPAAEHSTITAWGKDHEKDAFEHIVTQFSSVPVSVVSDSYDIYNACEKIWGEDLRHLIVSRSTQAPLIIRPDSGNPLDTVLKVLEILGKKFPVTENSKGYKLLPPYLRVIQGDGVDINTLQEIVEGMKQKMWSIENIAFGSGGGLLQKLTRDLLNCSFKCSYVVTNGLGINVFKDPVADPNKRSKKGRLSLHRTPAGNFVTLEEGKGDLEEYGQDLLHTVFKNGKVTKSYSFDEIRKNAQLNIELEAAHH

With `Cn1cc(-c2cccnc2OCC2CC(CNC(=O)c3ccc4nccn4c3)=NO2)cn1` (racemic) [Example 1, N-((5-(((3-(1-methyl-1H-pyrazol-4-yl)pyridin-2-yl)oxy)methyl)-4,5-dihydroisoxazol-3-yl)methyl)imidazo[1,2-a]pyridine-6-carboxamide], the 50% inhibitory concentration (IC50) in series [1] was less than 0.01 µM; in series [2] (Homo sapiens, MIA PaCa-2, 72 h), greater than 0.25 µM.
Take `O=C(NCC1=NOC(COc2ncccc2-c2ccc(F)nc2)C1)c1ccc2nccn2c1` (racemic) [Example 2, N-((5-(((6′-fluoro-[3,3′-bipyridin]-2-yl)oxy)methyl)-4,5-dihydroisoxazol-3-yl)methyl)-imidazo[1,2-a]pyridine-6-carboxamide]: in series [1], the concentration for half-maximal inhibition (IC50) was less than 0.01 µM. Also, in series [2] (Homo sapiens, MIA PaCa-2, 72 h), the inhibition at 1 µM was determined as 95%, the inhibition at 10 µM was 97% and the IC50 was in the range of 0.05 to 0.25 µM.
On to `O=C(NCC1=NOC(COc2ccncc2-c2ccc(F)nc2)C1)c1ccc2nccn2c1` (racemic) [Example 3, N-((5-(((6′-fluoro-[3,3′-bipyridin]-4-yl)oxy)methyl)-4,5-dihydroisoxazol-3-yl)methyl)-imidazo[1,2-a]pyridine-6-carboxamide], for which, in series [2] (Homo sapiens, MIA PaCa-2, 72 h), the inhibition at 1 µM worked out at 5%, the inhibition at 10 µM is 80% and the IC50 is greater than 0.25 µM.
On to `O=C(NCC1=NOC(COc2cccnc2-c2ccc(F)nc2)C1)c1ccc2nccn2c1` (racemic) [Example 4, N-((5-(((6′-fluoro-[2,3′-bipyridin]-3-yl)oxy)methyl)-4,5-dihydroisoxazol-3-yl)methyl)imidazo[1,2-a]pyridine-6-carboxamide], for which the concentration for half-maximal inhibition (IC50) in series [1] is less than 0.01 µM. Moreover, in series [2] (Homo sapiens, MIA PaCa-2, 72 h), the inhibition at 1 µM stood at 96%, the inhibition at 10 µM turned out to be 96% and the 50% inhibitory concentration (IC50) is less than 0.05 µM.
Regarding `Cn1cc(-c2ncccc2OCC2CC(CNC(=O)c3ccc4nccn4c3)=NO2)cn1` (racemic) [Example 5, N-((5-(((2-(1-methyl-1H-pyrazol-4-yl)pyridin-3-yl)oxy)methyl)-4,5-dihydroisoxazol-3-yl)methyl)imidazo[1,2-a]pyridine-6-carboxamide], the IC50 in series [1] was less than 0.01 µM. In series [2] (Homo sapiens, MIA PaCa-2, 72 h), the inhibition at 1 µM was found to be 47%, the inhibition at 10 µM amounted to 95% and the IC50 was in the range of 0.05 to 0.25 µM.
`CNC(=O)c1ccc(-c2ncccc2OCC2CC(CNC(=O)c3ccc4nccn4c3)=NO2)cc1F` (racemic) [Example 6, N-((5-(((2-(3-fluoro-4-(methylcarbamoyl)phenyl)pyridin-3-yl)oxy)methyl)-4,5-dihydroisoxazol-3-yl)methyl)imidazo[1,2-a]pyridine-6-carboxamide]: the IC50 in series [1] is greater than 0.025 µM. In series [2] (Homo sapiens, MIA PaCa-2, 72 h), the inhibition at 1 µM was determined as 15%, the inhibition at 10 µM is 80% and the concentration for half-maximal inhibition (IC50) is greater than 0.25 µM.
For the compound `O=C(NCC1=NOC(COc2cccnc2-c2cccnc2)C1)c1ccc2nccn2c1` (racemic) [Example 7, N-((5-(([2,3′-bipyridin]-3-yloxy)methyl)-4,5-dihydroisoxazol-3-yl)methyl)-imidazo[1,2-a]pyridine-6-carboxamide], the IC50 in series [1] is 0.01 to 0.025 µM. Also, in series [2] (Homo sapiens, MIA PaCa-2, 72 h), the inhibition at 1 µM was determined as 90%, the inhibition at 10 µM is 90% and the IC50 was in the range of 0.05 to 0.25 µM.
As for `O=C(NCC1=NOC(COc2cccnc2-c2ccc(Cl)nc2)C1)c1ccc2nccn2c1` (racemic) [Example 8, N-((5-(((6′-chloro-[2,3′-bipyridin]-3-yl)oxy)methyl)-4,5-dihydroisoxazol-3-yl)methyl)imidazo[1,2-a]pyridine-6-carboxamide], the IC50 is 0.01 to 0.025 µM in series [1] and less than 0.05 µM in series [2] (Homo sapiens, MIA PaCa-2, 72 h).
Take `O=C(NCC1=NOC(COc2cc(F)cnc2-c2ccc(F)nc2)C1)c1ccc2nccn2c1` (racemic) [Example 9, N-((5-(((5,6′-difluoro-[2,3′-bipyridin]-3-yl)oxy)methyl)-4,5-dihydroisoxazol-3-yl)methyl)imidazo[1,2-a]pyridine-6-carboxamide]: the 50% inhibitory concentration (IC50) in series [1] was 0.01 to 0.025 µM. Also, in series [2] (Homo sapiens, MIA PaCa-2, 72 h), the inhibition at 1 µM is 88%, the inhibition at 10 µM is 89% and the IC50 is less than 0.05 µM.
With `O=C(NCC1=NOC(COc2cc(F)cnc2-c2cccnc2)C1)c1ccc2nccn2c1` (racemic) [Example 15, N-((5-(((5-fluoro-[2,3′-bipyridin]-3-yl)oxy)methyl)-4,5-dihydroisoxazol-3-yl)methyl)imidazo[1,2-a]pyridine-6-carboxamide], in series [2] (Homo sapiens, MIA PaCa-2, 72 h), the inhibition at 1 µM amounted to 99%, the inhibition at 10 µM turned out to be 99% and the IC50 fell in the range of 0.05 to 0.25 µM.
Consider `O=C(NCC1=NOC(COc2cccnc2-c2cccnc2)C1)c1ccc2nccn2c1` (single isomer, unassigned) [Example 7b, N-((5-(([2,3′-bipyridin]-3-yloxy)methyl)-4,5-dihydroisoxazol-3-yl)methyl)-imidazo[1,2-a]pyridine-6-carboxamide], for which the IC50 in series [2] is greater than 0.25 µM.
On to `O=C(NCC1=NOC(COc2cccnc2-c2ccc(Cl)nc2)C1)c1ccc2nccn2c1` (single isomer, unassigned) [Example 8a, N-((5-(((6′-chloro-[2,3′-bipyridin]-3-yl)oxy)methyl)-4,5-dihydroisoxazol-3-yl)methyl)imidazo[1,2-a]pyridine-6-carboxamide], for which, in series [2], the “Cell cytotoxicity assay (% Inhibition at 1 μM)” value is listed as 10%, the “Cell cytotoxicity assay (% Inhibition at 10 μM)” value came to 10% and the IC50 was greater than 10 µM.
With `N#Cc1ccc(OCC2CC(CNC(=O)c3ccc4nccn4c3)=NO2)c(-c2ccc(F)nc2)n1` (single isomer, unassigned) [Example 10a, N-((5-(((6-cyano-6′-fluoro-[2,3′-bipyridin]-3-yl)oxy)methyl)-4,5-dihydroisoxazol-3-yl)methyl)imidazo[1,2-a]pyridine-6-carboxamide], in series [2] (Homo sapiens, MIA PaCa-2, 72 h), the inhibition at 1 µM was determined as 100%, the inhibition at 10 µM came out at 100% and the IC50 is less than 0.05 µM.
On to `N#Cc1ccc(OCC2CC(CNC(=O)c3ccc4nccn4c3)=NO2)c(-c2ccc(F)nc2)n1` (single isomer, unassigned) [Example 10b, N-((5-(((6-cyano-6′-fluoro-[2,3′-bipyridin]-3-yl)oxy)methyl)-4,5-dihydroisoxazol-3-yl)methyl)imidazo[1,2-a]pyridine-6-carboxamide], for which, in series [2], the “Cell cytotoxicity assay (% Inhibition at 1 μM)” value is reported as 100% and the “Cell cytotoxicity assay (% Inhibition at 10 μM)” value was determined as 100%.
For `O=C(NCC1=NOC(COc2cc(Cl)cnc2-c2ccc(F)nc2)C1)c1ccc2nccn2c1` (single isomer, unassigned) [Example 14a, N-((5-(((5-chloro-6′-fluoro-[2,3′-bipyridin]-3-yl)oxy)methyl)-4,5-dihydroisoxazol-3-yl)methyl)imidazo[1,2-a]pyridine-6-carboxamide], in series [2] (Homo sapiens, MIA PaCa-2, 72 h), the inhibition at 1 µM came out at 93% and the inhibition at 10 µM is 98%. In series [2], the IC50 was greater than 0.25 µM.
Turning to `O=C(NCC1=NOC(COc2cc(Cl)cnc2-c2ccc(F)nc2)C1)c1ccc2nccn2c1` (single isomer, unassigned) [Example 14b, N-((5-(((5-chloro-6′-fluoro-[2,3′-bipyridin]-3-yl)oxy)methyl)-4,5-dihydroisoxazol-3-yl)methyl)imidazo[1,2-a]pyridine-6-carboxamide], in series [2], the “Cell cytotoxicity assay (% Inhibition at 1 μM)” value is listed as 100%, the “Cell cytotoxicity assay (% Inhibition at 10 μM)” value came to 98% and the IC50 was less than 0.05 µM.
